# Measured values as given in EP0324328B1, “Use of the N-n-butyl derivative of desoxynojirimycin in the manufacture of a medicament inhibiting HIV-Virus” (priority 1987, dated 1989).
# Read-outs that look alike come from different tables or passages of the source.
# Tests used:
# HIV = assay: Inhibition of HIV-associated cytopathic effect (CPE) in T-45 cells; assay type: cell-based; settings: HIV infected T-45 cells, various concentrations (Fig. 3); result in words
# Description: FIG. 3 is a graphical representation in which the inhibition of HIV associated CPE (―% CPE) reduction) and test compound-associated cytotoxicity (---% cell death) is plotted against the media concentration in mg/ml of several test compounds (drugs). The cell viability data was determined for non-HIV infected cells. The test compounds were the N-methyl-, N-ethyl-, and N-butyl derivatives of deoxynojirimycin (DNJ), castanospermine (Cast), N-(5-carboxymethyl-1-pentyl)-1,5-imino-L-fucitol (LFT) and 1,4-dideoxy-1,4-imino-L-arabinitol (LAB).
# After a suitable period of incubation, the cultures are scored for the presence of so-called syncytial cells (giant cells). Typical examples of such a test for the evaluation of inhibitors of HIV have been disclosed by Fung et al., Bio/Technology 5, 940-946 (1987); Tyms et al., Lancet, October 31, 1987, pp. 1025-1026; Gruters et al., Nature 330, 74-77 (1987); and Walker et al., Proc. Natl. Acad. Sci. USA 84, 8120-8124 (1987).
# (§1) The efficacy of the test compounds used in this example was assessed as follows: 0.2 ml of culture medium containing 10^4 T-45 cells were transferred into each well of a 96-well flat-bottomed tissue-culture plastic plate and the cells were allowed to settle at 37°C (see Figure 1). After 4 hours the media were aspirated and replaced with media which contained the test compound. Following overnight incubation the media was aspirated and 10^4 TCID of virus (HIV-1 or HIV-2) was added to each well. Incubation was continued at 37°C in 5% CO2 for 1 hour. Thereafter, growth media containing the various compounds were added and incubation at 37°C was continued. On the fourth day the cell suspensions from each well were split and seeded into two new wells and 0.2 ml of fresh media with compounds was added. This was repeated on the seventh day. Cells were examined by microscopy during days 1 to 10 for the presence of syncytia, growth rate and the appearance of the cytopathic effect (CPE) (giant cells, pycnotic nuclei, loss of refractility). CPE (100%) was defined as no round, refractile, uniform cells remaining; only giant, ballooned pyknotic cells were present. The viability of HIV infected cultures was determined by a rough count/estimate of cells which underwent CPE in relation to round refractile uniform (normal) cells in a given culture. Cells in wells which were incubated with compounds which appeared to inhibit or reduce HIV replication and in which there was marked cell proliferation were either transferred to larger wells (of a 24-well plate) or divided in order to maintain an approximate constant cell density to promote continuous cell division.
# HIV-2 = assay: Virus titer (TCID) of HIV-2 infected T-cell cultures grown with test compound; assay type: cell-based; settings: control 10^6; for HIV-2 (TCID): Table 2, 0.10 mg/ml, 10^4 T-45 or MOLT-4 cells (identical results), 10^4 TCID inoculum, after day 10; for VIRUS TITER HIV-2: Table 3, Example 2, 0.1 mg/ml, T-45 and MOLT-4 cells, 10^4 TCID on 10^4 cells
# Description: (§2) Cell free suspensions of the HIV were prepared from infected cultures. The concentration of infectious particles was estimated on end-point titration assay using serial ten-fold dilutions. The approximate number of infectious particles in each preparation was determined by the highest dilution which contains infectious HIV as determined by synctial formation, cytopathicity [Leonard et al., Proc. Natl. Acad. Sci. USA 85, 3570-3574 (1988); Barre-Sinoussi et al., Science 220, 868-870 (1983)] and HIV antigen [Karpas et al., Lancet 1, 695-697 (1985)] synthesis after 10 days of culture with 10^4 T-cells. This represents the concentration of infectious particles, herein defined as the tissue culture infectious dose (TCID).
# (§3) The assay was run in 96 well plastic microtiter plates in which 0.2 ml of culture medium containing 10^4 T-cells are seeded into each well. RPMI-1640 supplemented with 10% fetal calf serum was used as the culture medium. In each assay, 6 wells are used. Three (1-3) are infected with 10^4 TCID/well of HIV-1 or HIV-2 and to the other three (4-6) culture medium alone is added. Medium is changed at the same intervals for each test compound. The detailed assay procedure is illustrated in Figures 1 and 2.
# as §1
# (§4) That is, HIV-1 was first passaged in T-45 cells; likewise, HIV-1 was first passaged in MOLT-4 cells. The same passaging was done with HIV-2. The test compounds were used at a concentration of 0.1 mg/ml. 10^4 TCID of HIV-1 and separately of HIV-2 were used to infect 10^4 cells. Upon completion of the test, the virus titers were as follows: TABLE 3
# T-45 cells = assay type: cell-based, human; settings: for Estimated Cell Growth Virus-uninfected Day 7: no-drug control 1.2x10^6; for cytotoxicity: non-infected cells, over the concentration range used (Fig. 3, Table 1), result in words
# Description: FIG. 1 is a schematic outline of the test procedure used to assess the cytotoxic effect of test compounds on T-cells either infected or non-infected with HIV and in parallel the HIV inhibitory activity of the test compounds. TCID is the tissue culture infectious dose. Cells were cultured in RPMI-1640 medium with 10% fetal calf serum containing 100 units/ml penicillin G and 100 µg/ml streptomycin.
# as §3
# as §1, with “culture.” for “culture. Cells in wells which were incubated with compounds which appeared to inhibit or reduce HIV replication and in which there was marked cell proliferation were either transferred to larger wells (of a 24-well plate) or divided in order to maintain an approximate constant cell density to promote continuous cell division.”
# Quantitative data on the effect of the various compounds on the non-infected cells (cytotoxicity) was obtained by comparison of their growth rate to control cells not exposed to drugs (Table 1). […] In addition, the MOLT-4 cell line was also used.
# HIV-1 = assay: Virus titer (TCID) of HIV-1 infected T-cell cultures grown with test compound; assay type: cell-based; settings: control 10^6; for HIV-1 (TCID): Table 2, 0.10 mg/ml, 10^4 T-45 or MOLT-4 cells (identical results), 10^4 TCID inoculum, after day 10; for VIRUS TITER HIV-1: Table 3, Example 2, 0.1 mg/ml, T-45 and MOLT-4 cells, 10^4 TCID on 10^4 cells
# Description: as §2, §3, §1, §4
smiles,measurement,setting,value
"CCCCN1C[C@H](O)[C@@H](O)[C@H](O)[C@H]1CO [BuDNJ, N-n-butyl-deoxynojirimycin]",effect on CPE formation,HIV,completely prevented CPE in the HIV infected cells at all concentrations tested
same,HIV-2 (TCID),HIV-2,<10 TCID
same,VIRUS TITER HIV-2,HIV-2,10
same,Estimated Cell Growth Virus-uninfected Day 7,T-45 cells; Dosage 0.01 mg/ml,1.2x10^6
same,Estimated Cell Growth Virus-uninfected Day 7,T-45 cells; Dosage 0.05 mg/ml,1.2x10^6
same,Estimated Cell Growth Virus-uninfected Day 7,T-45 cells; Dosage 0.10 mg/ml,1.4x10^6
same,cytotoxicity,T-45 cells,showed no cytotoxicity over the concentration range used
same,HIV-1 (TCID),HIV-1,<10 TCID
same,VIRUS TITER HIV-1,HIV-1,10
"CN1C[C@H](O)[C@@H](O)[C@H](O)[C@H]1CO [MeDNJ, N-methyl-deoxynojirimycin]",effect on CPE formation,HIV,bell shaped dose-dependence
same,HIV-2 (TCID),HIV-2,10^2 TCID
same,VIRUS TITER HIV-2,HIV-2,10^2
same,Estimated Cell Growth Virus-uninfected Day 7,T-45 cells; Dosage 0.01 mg/ml,1.2x10^6
same,Estimated Cell Growth Virus-uninfected Day 7,T-45 cells; Dosage 0.05 mg/ml,1.2x10^6
same,Estimated Cell Growth Virus-uninfected Day 7,T-45 cells; Dosage 0.10 mg/ml,1.0x10^6
same,Estimated Cell Growth Virus-uninfected Day 7,T-45 cells; Dosage 0.25 mg/ml,1.0x10^6
same,Estimated Cell Growth Virus-uninfected Day 7,T-45 cells; Dosage 0.50 mg/ml,5.0x10^6
same,cytotoxicity,T-45 cells,cytotoxic
same,HIV-1 (TCID),HIV-1,10^2 TCID
same,VIRUS TITER HIV-1,HIV-1,10^2
